# Test results: patent publication US20240398727A1, “(S)-5-(1-(3,5-BIS(TRIFLUOROMETHYL)PHENOXY)ETHYL)CYCLOHEXANE-1,3-DIONE (NU-9) IMPROVES THE HEALTH OF DISEASED UPPER MOTOR NEURONS” (Northwestern University, priority 2021, published 2024)
# What was measured:
# [1] = system: UMNs of hSOD1^G93A-UeGFP mice; assay: Sholl analysis of arborization and branching, UMNs diseased by mSOD1 toxicity; format: cell-based, mouse; settings: 3 days in culture, data not shown
# Method: (§1) UMN Cultures. P3 motor cortices isolated from WT-UeGFP, hSOD1^G93A-UeGFP, and prpTDP-43^A315T-UeGFP mice were dissected, dissociated, and cultured on glass coverslips (4×10^4 cells per 18 mm diameter coverslip, Fisherbrand) coated with poly-L-lysine (10 mg/mL, Sigma) as previously described (Ozdinler and Macklis 2006). Neurons were cultured in SFM [0.034 mg/L BSA, 1 mM L-glutamine, 25 U/mL penicillin, 0.025 mg/mL streptomycin, 35 mM glucose, and 0.5% B27 in Neurobasal-A medium (Life Technologies)] in a humidified tissue culture incubator in the presence of 5% CO2 at 37° C. […] Cultures were fixed after 3 days in vitro (DIV).
# (§2) UMNs were quantitatively analyzed for differences in neurite length and arborization complexity. Images taken with a 20× objective on the epifluorescent microscope (Nikon) were analyzed using the Neurite Tracer plugin from FIJI (NIH), which enables semi-autonomous tracing to measure the length of the axon. The aggregation of the neurite tracings centered at the soma generates a profile available for Sholl analysis.
# [2] = male, BALB/c, mouse, in vivo, po
# [3] = Plasma, brain and CNS concentrations after repeated oral dosing; settings: mice, 100 mg/kg/day via daily gavage
# [4] = system: UMNs from prpTDP-43^A315T-UeGFP mice; assay: Sholl analysis of arborization and branching, UMNs with TDP-43 pathology; format: cell-based, mouse; settings: prpTDP-43^A315T-UeGFP UMNs; data not shown
# Method: as §1, §2
# Statistical analysis. All analyses were performed using Prism software (GraphPad Software). The D'Agostino and Pearson normality test was performed on all datasets. Statistical differences between more than two groups were determined by one-way ANOVA followed by the Tukey's post-hoc multiple-comparison test. […]
# male BALB/c mice = settings: mouse, in vivo, po, 100 mg/kg/day
# Method: Repeated dose toxicity study was performed at Laboratory Animal House (LAH), Toxicology, Sai Life Science Ltd., Chrysalis Enclave, Phase II, Hinjewadi, Pune-411 057, Maharashtra, India.
# in vivo = settings: BALB/c, mouse, 100 mg/kg/day
# [5] = system: UMNs from prpTDP-43^A315T-UeGFP mice; format: cell-based; settings: prpTDP-43^A315T-UeGFP UMNs, 3 days in vitro; for average length of the axons of UMNs: SFM control 199.52±21.15 μm, WT 321.41±17.54 μm
# From the text: (§3) Mice. All animal procedures were approved by the Northwestern University Animal Care and Use committee and comply with the standards of the National Institutes of Health. All mice were on C57BL/6 background. Transgenic hemizygous males expressing a high copy number of the human SOD1 gene with a G93A mutation (B6SJL-Tg (SOD1*G93A)1Gur/J; The Jackson Laboratory) were bred to hemizygous UCHL1-eGFP females to generate hSOD1^G93A-UeGFP and WT-UeGFP (control) mice. UCHL1-eGFP mice were generated in the Ozdinler Lab; they are reporter lines for UMNs (Yasvoina, Genc et al. 2013), and are now available at Jackson Laboratory (stock no. 022476). Hemizygous UCHL1-eGFP females were bred to hemizygous prpTDP-43^A315T mice (procured from Jackson Laboratory, stock no. 010700) to generate prpTDP-43^A315T-UeGFP mice. prpTDP-43^A315T mice were supplied with gel diet (DietGel 76A, ClearH2O, ME, USA) to eliminate gastrointestinal (GI) complications. Transgenic mice were identified by PCR amplification of DNA extracted from their tail, as previously described (Gurney, Pu et al. 1994, Wegorzewska, Bell et al. 2009, Yasvoina, Genc et al. 2013, Gautam, Jara et al. 2019). Mice with different genotypes are abbreviated in the figures as follows: WT-UeGFP (control) mice=G mice; hSOD1^G93A-UeGFP mice=GS mice; prpTDP-43^A315T-UeGFP mice=GTDP mice.
# (§4) Compound preparation and delivery. NU-9 was prepared as 100 μM stock in dimethylsulfoxide (DMSO) and added to serum free medium (SFM) at a final concentration of 400 nM (4 μl per 1 ml SFM). […] Edaravone (Sigma-Aldrich) was prepared as 1 mM stock in DMSO and added at a final concentration of 1 μM in SFM (1 μl per 1 ml SFM). Amylyx AMX-0035 compound was a combination of 1 mM of 4-Phenylbutyric acid (4-PBA, Sigma Aldrich)+100 μM Tauroursodeoxycholic Acid, Sodium Salt (TUDCA, Millipore Sigma) added into SFM (4-PBA was prepared as a 21.5 mM stock in water and added at 46.5 μl per 1 ml SFM, TUDCA was prepared as 20 mM stock in water, and added at 5 μl per 1 ml SFM).
# (§5) UMN Cultures. P3 motor cortices isolated from WT-UeGFP, hSOD1^G93A-UeGFP, and prpTDP-43^A315T-UeGFP mice were dissected, dissociated, and cultured on glass coverslips (4×10^4 cells per 18 mm diameter coverslip, Fisherbrand) coated with poly-L-lysine (10 mg/mL, Sigma) as previously described (Ozdinler and Macklis 2006). […]
# as §2, with “The aggregation of the neurite tracings centered at the soma generates a profile available for Sholl analysis.” left out
# [6] = system: UMNs of hSOD1^G93A-UeGFP mice; assay: Axon outgrowth of UMNs diseased by mSOD1 toxicity in dissociated motor cortex culture; format: cell-based, mouse; settings: 3 days in vitro; for average length of UMN axons: SFM control 227.62±19.63 μm, WT 321.41±17.54 μm
# From the text: as §3, §4, §5
# as §2, with “The aggregation of the neurite tracings centered at the soma generates a profile available for Sholl analysis.” left out
# [7] = system: misfolded SOD1 (mSOD1) mouse model; settings: literature (Snow 2003, Scott 2008); cited from earlier work
# [8] = literature value; cited from earlier work
# [9] = NU-9 400 nM, riluzole 500 nM, edaravone 1 μM
# [10] = riluzole 500 nM, edaravone 1 μM
Compound,UMN arborization (Sholl measurements) [1],time till which plasma concentrations were quantifiable [2],time up to which brain concentrations were quantifiable [2],dose (concentration) detected in CNS [3] [nM],neuronal arborization and branching (Sholl analyses) [4],mortality (male BALB/c mice),"concentration at 7 day (in vivo; CNS, oral) [nM]","Tmax (in vivo; male, plasma, po) [min]","percentage of UMNs with axons longer than 300 μm ([5]; NU-9 400 nM, vehicle 26%) [%]","average length of the axons of UMNs [5, 9] [μm]",percent of UMNs with an axon within the range of 300-399 μm ([6]; NU-9 400 nM),"average length of UMN axons [6, 9] [μm]",longevity of the mSOD1 mouse model [7],concentration reported to be present in the CNS after the optimum dose used in clinical trials [8] [nM],"percentage of UMNs with axons in the range of 200-399 μm [5, 10] [%]","overall axon outgrowth (distribution of longest axons) [6, 10]"
"C[C@H](Oc1cc(C(F)(F)F)cc(C(F)(F)F)c1)C1CC(=O)CC(=O)C1 [NU-9, (S)-5-(1-(3,5-bis(trifluoromethyl)phenoxy)ethyl)cyclohexane-1,3-dione]",more complex and arborized UMNs,up to 24 h,up to 24 h,400,enhanced neuronal arborization and branching,did not result in mortality,400,30,88,397.73±14.09,about 44.4%,346.76±12.32,,,,
"Nc1nc2ccc(OC(F)(F)F)cc2s1 [riluzole, 2-Amino-6-(trifluoromethoxy)benzothiazole]",,,,,,,,,,,,,failed to improve the longevity,,,
"CC1=NN(c2ccccc2)C(=O)C1 [edaravone, 2,4-Dihydro-5-methyl-2-phenyl-3H-pyrazol-3-one, reference compound]","improved UMN arborization, but to a lesser extent",,,,,,,,,282.57±32.39,,289.58±22.71,,1000,62,improved overall axon outgrowth
